Measurements published in article PMC3820767, “Turning Defense into Offense: Defensin Mimetics as Novel Antibiotics Targeting Lipid II” (PLoS Pathogens, 2013).

Assays:
[1] = Cytotoxicity by MTT assay; format: cell-based, human; settings: human, Caco-2 cells; concentration resulting in 50% cell survival, MTT, 24 h; read-out: Cytotoxicity (C50%) Caco-2
[2] = tested on: Enterococcus faecalis (VRE) MMX848; test: Broth microdilution susceptibility testing (CLSI); format: cell-based; settings: Enterococcus faecalis, VRE, read-out: MIC Enterococcus faecalis (VRE) 848-NA
Experimental: (§1) The antibacterial activity of defensin mimetics against Staphylococcus aureus ATCC 29213 and Escherichia coli 25922 was carried out in a 96-well turbidimetric assay essentially as described previously with the following modifications: bacteria were exposed for 30 min to compounds in 10 mM phosphate buffer containing 5% DMSO prior to addition of 2× Muller-Hinton medium. Bacterial growth was monitored for 12 hours and data were analyzed as described. Determination of MICs was performed by Micromyx, LLC (Kalamazoo, Michigan) according to CLSI standards.

[3] = tested on: Enterococcus faecalis MMX101-ATCC 29212; test: Broth microdilution susceptibility testing (CLSI); format: cell-based; settings: Enterococcus faecalis, ATCC29212, read-out: MIC Enterococcus faecalis 101-29212
Experimental: as §1

[4] = tested on: Escherichia coli MMX102-ATCC 25922; test: Broth microdilution susceptibility testing (CLSI); format: cell-based; settings: for MIC: Escherichia coli, ATCC25922, read-out: MIC Escherichia coli 102-25922
Experimental: as §1

[5] = tested on: Pseudomonas aeruginosa MMX103-ATCC 27853; test: Broth microdilution susceptibility testing (CLSI); format: cell-based; settings: Pseudomonas aeruginosa, ATCC27853, read-out: MIC Pseudomonas aeruginosa 103-27853
Experimental: as §1

[6] = tested on: Staphylococcus aureus (MRSA) MMX757; test: Broth microdilution susceptibility testing (CLSI); format: cell-based; settings: Staphylococcus aureus, MRSA, read-out: MIC Staphylococcus aureus (MRSA) 757-NA
Experimental: as §1

[7] = tested on: Staphylococcus aureus MMX100-ATCC 29213; test: Broth microdilution susceptibility testing (CLSI); format: cell-based; settings: Staphylococcus aureus, ATCC29213, read-out: MIC Staphylococcus aureus 100-29213
Experimental: as §1

[8] = tested on: Streptococcus pneumoniae MMX1195-ATCC 49619; test: Broth microdilution susceptibility testing (CLSI); format: cell-based; settings: Streptococcus pneumoniae, ATCC49619, read-out: MIC Streptococcus pneumoniae 1195-49619
Experimental: as §1

[9] = tested on: S. aureus MMX100 (ATCC 29213); test: Macromolecular synthesis assays (mechanism of action); format: cell-based, Staphylococcus aureus
Experimental: Macromolecular synthesis inhibition by BAS00127538 and 1499-1221 were investigated using S. aureus MMX100 (ATCC 29213). Cells were grown at 35°C overnight on Tryptic Soy Agar Broth (Remel, Lenexa, KS), and growth from the plate was used to inoculate 15 ml of Mueller Hinton Broth. The culture was grown to early exponential growth phase (OD600 = 0.2 to 0.3) while incubating in a shaker at 35°C and 150 rpm. For each macromolecular assay, the test agents 1499-1221 and BAS00127538 were added at either 0, 0.25, 0.5, 1, 2, or 4, -fold their respective MIC values for S. aureus ATCC 29213.
For DNA and protein synthesis, 100 µl of cell culture reaching early exponential phase was added to triplicate wells containing various concentrations of test compound or control antibiotics (2.5 µl) at 40× the final concentration in 100% DMSO (0.1% methanol in water for Rifampicin). A 2.5% DMSO treated culture served as the “no drug” control for all experiments. Cells were added in 1.25× strength MHB to account for the volume of drug added to each reaction, or in M9 minimal medium for protein synthesis reactions. Following a 5 min incubation at room temperature either [^3H]Thymidine (DNA synthesis) or [^3H]Leucine (protein synthesis) was added at 0.5–1.0 µCi per reaction, depending on the experiment. Reactions were allowed to proceed at room temperature for 15–40 min and then stopped by adding 12 µl of cold 5% trichloroacetic acid (TCA) or 5% TCA/2% casamino acids (protein synthesis). Reactions were incubated on ice for 30 min and the TCA precipitated material was collected on a 25 mm GF/1.2 µm PES 96 well filter plate (Corning). After washing five times with 200 µl per well of cold 5% TCA, the filters were allowed to dry, and then counted using a Packard Top Count microplate scintillation counter.
For cell wall synthesis, bacterial cells in early exponential growth phase were transferred to M9 minimal medium and added to 1.5 ml eppendorf tubes (100 µl/tube) containing various concentrations of test compound or control antibiotics (2.5 µl) at 40× the final concentration in 100% DMSO as described above. Following a 5 min incubation at 37°C, [^14C] N-acetyl-glucosamine (0.4 µCi/reaction) was added to each tube and incubated for 45 min in a 37°C heating block. […] After washing three times with 5 ml of 0.1% SDS, the filters were rinsed two times with 5 ml of deionized water, allowed to dry, and then counted using a Beckman LS3801 liquid scintillation counter.
For lipid synthesis, bacterial cells were grown to early exponential growth phase in MHB and 100 µl was added to 1.5 ml Eppendorf tubes (in triplicate) containing various concentrations of test compound or control antibiotics as described above. […] Samples were then counted via liquid scintillation counting. […]

[10] = NMR interaction with Lipid II; format: binding; settings: 1D proton chemical shift changes on addition to 3-Lipid II
Experimental: The NMR samples consisted of 0.15 mM Lipid II, 0.15 mM BAS00127538 compound, or 0.15 mM Lipid II+0.15 mM BAS00127538 compound. All samples were dissolved in 90% double distilled H20+10% DMSO, incubated for 30 minutes, freeze-dried, and then dissolved in 300 µL of d6-DMSO. NMR experiments were carried out at 25°C on an 800 MHz Bruker Avance NMR spectrometer (800.27 MHz for protons) equipped with a pulse-field gradient unit, four frequency channels, and a triple resonance TXI cryoprobe (Bruker Biospin, Billerica, MA). 1D proton experiments were collected to probe for chemical shift changes and 2D TOCSY (30, 60, and 90 msec spinlock times), 2D NOESY (150 and 300 msec mixing times), and natural abundance ^13C-HSQC experiments were collected to determine proton and carbon chemical shift assignments.

MIC [2] [µg/mL]	MIC [3] [µg/mL]	MIC Escherichia coli 102-25922 [4] [µg/mL]	MIC [4] [µg/mL]	MIC [5] [µg/mL]	MIC [6] [µg/mL]	MIC [7] [µg/mL]	MIC [8] [µg/mL]	Structure (SMILES)	IC50 at 24 h [1] [µM]	inhibition of DNA, lipid or protein synthesis ([9]; 1× MIC)	inhibition of cell wall synthesis ([9]; 1× MIC, [14C]N-acetyl-glucosamine incorporation)	DNA, protein and lipid synthesis ([9]; elevated concentrations (above 1× MIC))	interaction with Lipid II by NMR [10]	likely primary mechanism of action ([9]; mechanism of action studies, Figure S4)
1	1	4	4	> 8	0.5	0.5	8	CN1/C(=C/C=C/c2cc(-c3ccccc3)cc(-c3ccccc3)[o+]2)C(C)(C)c2ccccc21 [BAS00127538, 2,4-diphenyl-6-[(1E)-3-[(2E)-1,3,3-trimethyl-2,3-dihydro-1H-indol-2-ylidene]prop-1-en-1-yl]-1$l^4-pyran-1-ylium]	2.7	not DNA, lipid or protein synthesis	significantly inhibited cell wall synthesis	reduced	found to interact	
2	2		> 16	> 16	0.5	0.25	> 8	CN(C)c1ccc(/C=C/c2cc(-c3ccccc3)[o+]c(-c3ccccc3)c2)cc1 [Compound 1499-1221]	8.9				could not be confirmed	membrane perturbation
